# Measurements reported in patent US5776944A, “7-(4-aminomethyl-3-methyloxyiminopyrroplidin-1-yl)-1-cyclopropyl-6-flu oro-4-oxo-1,4-dihydro-1,8-naphthyridine-3-carboxylic acid and the process for the preparation thereof” (LG Chemical Ltd., priority 1994, dated 1998).
# Read-outs that look alike come from different tables or passages of the source.
# Key:
# [1] = Moisture content according to hydration number; type: physicochemical; conditions: actual moisture content, methanesulfonate hydrates
# Procedure: The moisture content of the hydrate varies with the hydration number (n) of the hydrated molecule. Since the molecular weight of 7-(4-amino-methyl-3-methyloxylminopyrrolidin-1-yl)-1-cyclopropyl-6-fluoro- 4-oxo-1,4-dihydro-1,8-naphthyridine-3-carboxylic acid methanesulfonate is 485.5, the moisture content of the hydrate for n equal to 1, 1.5, 2, 2.5, 3, 3.5 or 4 is calculated to be 3.6%, […], 6.9%, 8.5%, 10.0%, 11.5% or 12.9%, respectively. However, the actual moisture content may differ from the calculated moisture content depending on differences in recrystallization conditions, drying conditions, etc.
# [2] = Equilibrium moisture content determination of hydrates; type: physicochemical
# Procedure: Six saturated aqueous salt solutions were introduced into each desiccator to control the inner relative humidity to a specific value as represented in the following Table 28. Then, equilibrium moisture contents of 3 hydrate and 1.5 hydrate prepared in Examples 205 and 206, respectively, were determined at several relative humidities.
# Specifically, 100 mg of the sample was spread on a preweighed Petri dish and the total weight was accurately measured, then three of the sample were placed in each desiccator of Table 28. The desiccators were allowed to stand at normal temperature for 7 days and then the sample was taken to be weighed. After 13 days had passed, one of the three samples inside each desiccator was taken and the moisture content of each was measured by the thermogravimetric analysis described in Test Example 2. Equilibrium moisture content at each relative humidity is represented in FIG. 3 (3 hydrate), and FIG. 4 (1.5 hydrate). […] Both hydrates are stable since they keep a constant equilibrium moisture content regardless of the relative humidity change.
# [3] = Chemical stability under heating; conditions: for thermal stability: hydrate
# Procedure: The anhydride and each of the hydrates was introduced into a glass vial and maintained at 70° C.
# [4] = test system: Escherichia coli TEM3 3455E; assay: In vitro antibacterial activity (MIC, agar medium dilution), Biological Example 4; type: cell-based; conditions: TEM33455E, 18 h
# [5] = test system: Streptococcus faecalis 29212; assay: as above; type: cell-based; conditions: Enterococcus faecalis, 29212, 18 h, Streptococcus faecalis 29212, Table 31; read-out: Minimum Inhibitory Concentration: MIC
# [6] = test system: Pseudomonas aeruginosa 6065Y; assay: as above; type: cell-based; conditions: 18 h, Table 31, read-out: Minimum Inhibitory Concentration: MIC
# Procedure: (§1) In order to determine the antibacterial activitiers of the E- and Z-isomner of the compound 180 which were separated in Example 203, and of 7- (4-aminomethyl-3-methyloxylminopyrrolidin-1-yl)-1-cyclopropyl-6-fluoro-4-oxo-1,4-dihydro-1,8-naphthyridine-3-carboxylic acid methanesulfonate prepared in Example 204, in vitro antibacterial activities of them were measured using agar medium dilution method. The results were as described in the following Tables 31 and 32.
# Seratis marsecence 1826E = assay: as above; type: cell-based; conditions: for MIC: 18 h, Table 31, read-out: Minimum Inhibitory Concentration: MIC
# Procedure: as §1
# [7] = test system: Pseudomonas aeruginosa 10145; assay: as above; type: cell-based; conditions: Pseudomonas aeruginosa, 10145, 18 h, read-out: Minimum Inhibitory Concentration: MIC
# [8] = test system: Staphylococcus epidermidis 887E; assay: as above; type: cell-based; conditions: 18 h, Staphylococcus epidermidis 887E, Table 31, read-out: Minimum Inhibitory Concentration: MIC
# Bacillus subtilis 6633 = assay: as above; type: cell-based; conditions: 18 h; Bacillus subtilis 6633, Table 31; read-out: Minimum Inhibitory Concentration: MIC
# Proteus vulgaris 6059 = assay: as above; type: cell-based; conditions: 18 h; Proteus vulgaris 6059, Table 31; read-out: Minimum Inhibitory Concentration: MIC
# [9] = test system: Enterobacter cloacae 1194E; assay: microbe, parasite or virus in culture; type: cell-based; conditions: 18 h, read-out: Minimum Inhibitory Concentration: MIC
# [10] = test system: Salmonella thypimurium 14028; assay: In vitro antibacterial activity (MIC, agar medium dilution), Biological Example 4; type: cell-based; conditions: 18 h; Salmonella thypimurium 14028, Table 31; read-out: Minimum Inhibitory Concentration: MIC
# Enterobacter cloacae P99 = assay: microbe, parasite or virus in culture; type: cell-based; conditions: P99, 18 h, read-out: Minimum Inhibitory Concentration: MIC
# Staphylococcus aureus 77 = assay: In vitro antibacterial activity (MIC, agar medium dilution), Biological Example 4; type: cell-based; conditions: 18 h; Staphylococcus aureus 77, Table 31; read-out: Minimum Inhibitory Concentration: MIC
# Escherichia coli 10536 = assay: as above; type: cell-based; conditions: Escherichia coli, 10536, 18 h, Escherichia coli 10536, Table 31; read-out: Minimum Inhibitory Concentration: MIC
# [11] = test system: Staphylococcus aureus 241; assay: as above; type: cell-based; conditions: Staphylococcus aureus, 241, 18 h, Staphylococcus aureus 241, Table 31; read-out: Minimum Inhibitory Concentration: MIC
# [12] = test system: Escherichia coli TEM9 2639E; assay: as above; type: cell-based; conditions: TEM92639E, 18 h, read-out: Minimum Inhibitory Concentration: MIC
# Escherichia coli 851E = assay: as above; type: cell-based; conditions: 18 h, Table 31, read-out: Minimum Inhibitory Concentration: MIC
# Micrococcus luteus 9341 = assay: as above; type: cell-based; conditions: 18 h; Micrococcus luteus 9341, Table 31; read-out: Minimum Inhibitory Concentration: MIC
# Escherichia coli 3190Y = assay: as above; type: cell-based; conditions: 18 h, Table 31, read-out: Minimum Inhibitory Concentration: MIC
# [13] = test system: Klebsiella aerogenes 1976E; assay: as above; type: cell-based; conditions: 18 h, Table 31, read-out: Minimum Inhibitory Concentration: MIC
# [14] = test system: Pseudomonas aeruginosa 1912E; assay: as above; type: cell-based; conditions: 18 h, Table 31, read-out: Minimum Inhibitory Concentration: MIC
# [15] = test system: Escherichia coli TEM5 3739E; assay: as above; type: cell-based; conditions: TEM53739E, 18 h, read-out: Minimum Inhibitory Concentration: MIC
# [16] = test system: Acinetobacter calcoaceticus 15473; assay: as above; type: cell-based; conditions: 18 h; Acinetobacter calcoaceticus 15473, Table 31; read-out: Minimum Inhibitory Concentration: MIC
# [17] = test system: Staphylococcus epidermidis 178; assay: as above; type: cell-based; conditions: 18 h; Staphylococcus epidermidis 178, Table 31; read-out: Minimum Inhibitory Concentration: MIC
# [18] = test system: Klebsiella aerogenes 1082E; assay: as above; type: cell-based; conditions: 18 h, Table 31, read-out: Minimum Inhibitory Concentration: MIC
# [19] = test system: Citrobacter diversus 2046E; assay: as above; type: cell-based; conditions: Citrobacter koseri, 18 h, Table 31, read-out: Minimum Inhibitory Concentration: MIC
# [20] = test system: Staphylococcus aureus 6538p; assay: as above; type: cell-based; conditions: 18 h, Table 31, read-out: Minimum Inhibitory Concentration: MIC
# [21] = test system: Staphylococcus aureus giorgio; assay: as above; type: cell-based; conditions: 18 h, Table 31, read-out: Minimum Inhibitory Concentration: MIC
# [22] = phosphate buffered solution
# physchem = conditions: phosphate buffered solution
# test strains = assay: In vitro antibacterial activity, overall finding, Biological Example 4; type: cell-based; conditions: Tables 31 and 32
# Procedure: as §1
structure (smiles),measurement,setting,value
"CON=C1CN(c2nc3c(cc2F)c(=O)c(C(=O)O)cn3C2CC2)CC1CN (stereo not shown) [1 hydrate, 7-(4-aminomethyl-3-methyloxylminopyrrolidin-1-yl)-1-cyclopropyl-6-fluoro-4-oxo-1,4-dihydro-1,8-naphthyridine-3-carboxylic acid methanesulfonate]",Moisture Content,[1],2-4%
"CON=C1CN(c2nc3c(cc2F)c(=O)c(C(=O)O)cn3C2CC2)CC1CN (stereo not shown) [1.5 hydrate, 7-(4-aminomethyl-3-methyloxyiminopyrrolidin-1-yl)-1-cyclopropyl-6-fluoro-4-oxo-1,4-dihydro-1,8-naphthyridine-3-carboxylic acid methanesulfonate·1.5 hydrate]",stability of hydrate towards relative humidity change,[2],stable
same,equilibrium moisture content,[2]; relative humidity 23 to 64%,around 5%
same,thermal stability compared with the anhydride,"[3]; 70° C., Table 29",the same degree of thermal stability as the anhydride
same,thermal stability,[3]; 20160 min,95.80%
same,thermal stability,[3]; 40320 min,96.17%
same,thermal stability,[3],100%
same,remaining at 168 h,"[3]; thermal stability, 1 week, 70° C.",97.2%
same,remaining at 504 h,"[3]; thermal stability, 3 weeks, 70° C.",97.2%
same,Moisture Content,[1]; hydrate,4-6%
"CON=C1CN(c2nc3c(cc2F)c(=O)c(C(=O)O)cn3C2CC2)CC1CN (stereo not shown) [2 hydrate, 7-(4-aminomethyl-3-methyloxylminopyrrolidin-1-yl)-1-cyclopropyl-6-fluoro-4-oxo-1,4-dihydro-1,8-naphthyridine-3-carboxylic acid methanesulfonate]",Moisture Content,[1],6-8%
"CON=C1CN(c2nc3c(cc2F)c(=O)c(C(=O)O)cn3C2CC2)CC1CN (stereo not shown) [2.5 hydrate, 7-(4-aminomethyl-3-methyloxylminopyrrolidin-1-yl)-1-cyclopropyl-6-fluoro-4-oxo-1,4-dihydro-1,8-naphthyridine-3-carboxylic acid methanesulfonate]",Moisture Content,[1],8-9%
"CON=C1CN(c2nc3c(cc2F)c(=O)c(C(=O)O)cn3C2CC2)CC1CN (stereo not shown) [3.5 hydrate, 7-(4-aminomethyl-3-methyloxylminopyrrolidin-1-yl)-1-cyclopropyl-6-fluoro-4-oxo-1,4-dihydro-1,8-naphthyridine-3-carboxylic acid methanesulfonate]",Moisture Content,[1],11-12%
"CON=C1CN(c2nc3c(cc2F)c(=O)c(C(=O)O)cn3C2CC2)CC1CN (stereo not shown) [4 hydrate, 7-(4-aminomethyl-3-methyloxylminopyrrolidin-1-yl)-1-cyclopropyl-6-fluoro-4-oxo-1,4-dihydro-1,8-naphthyridine-3-carboxylic acid methanesulfonate]",Moisture Content,[1],12-13%
"O=C(O)c1cn(C2CC2)c2cc(N3CCNCC3)c(F)cc2c1=O [Ciprofloxacin, ciprofloxacin, reference compound]",MIC,"[4]; read-out: Minimum Inhibitory Concentration: MIC, Escherichia coli TEM3 3455E, Table 32, ratio of weight",0.5 µg/mL
same,MIC,[5],1 µg/mL
same,MIC,[6],4 µg/mL
same,MIC,Seratis marsecence 1826E,0.063 µg/mL
same,Minimum Inhibitory Concentration: MIC,"Seratis marsecence 1826E; Table 32, ratio of weight",0.063 µg/mL
same,MIC,"[7]; Pseudomonas aeruginosa 10145, Table 32, ratio of weight",0.5 µg/mL
same,MIC,[8],0.063 µg/mL
CO/N=C1/CN(c2nc3c(cc2F)c(=O)c(C(=O)O)cn3C2CC2)CC1CN (stereo not drawn) [E-isomer],MIC,Bacillus subtilis 6633,0.031 µg/mL
same,MIC,Proteus vulgaris 6059,1 µg/mL
same,MIC,[9],0.13 µg/mL
same,MIC,"[4]; read-out: Minimum Inhibitory Concentration: MIC, Escherichia coli TEM3 3455E, Table 31",0.5 µg/mL
same,MIC,[10],0.13 µg/mL
same,MIC,[5],0.25 µg/mL
same,MIC,Enterobacter cloacae P99,0.031 µg/mL
same,MIC,[6],32 µg/mL
same,MIC,Seratis marsecence 1826E,0.5 µg/mL
same,MIC,Staphylococcus aureus 77,0.063 µg/mL
same,MIC,Escherichia coli 10536,0.031 µg/mL
same,MIC,"[7]; Pseudomonas aeruginosa 10145, Table 31",2 µg/mL
same,MIC,[11],16 µg/mL
same,MIC,[8],0.031 µg/mL
same,MIC,[12],0.13 µg/mL
same,MIC,Escherichia coli 851E,0.063 µg/mL
same,MIC,Micrococcus luteus 9341,0.5 µg/mL
same,MIC,Escherichia coli 3190Y,0.016 µg/mL
same,MIC,[13],0.25 µg/mL
same,MIC,[14],1 µg/mL
same,MIC,[15],0.5 µg/mL
same,MIC,[16],0.25 µg/mL
same,MIC,[17],32 µg/mL
same,MIC,[18],0.13 µg/mL
same,MIC,[19],0.13 µg/mL
same,MIC,[20],0.063 µg/mL
same,MIC,[21],0.063 µg/mL
CON=C1CN(c2nc3c(cc2F)c(=O)c(C(=O)O)cn3C2CC2)CC1CN (stereo not shown) [Sulfurate],Water Solubility,[22]; pH 2,8.9
same,Water Solubility,[22]; pH 7,11.4
CON=C1CN(c2nc3c(cc2F)c(=O)c(C(=O)O)cn3C2CC2)CC1CN (stereo not shown) [Tartarate],solubility,physchem; pH 2,15.4 mg/mL
same,solubility,physchem; pH 7,6.7 mg/mL
"CON=C1CN(c2nc3c(cc2F)c(=O)c(C(=O)O)cn3C2CC2)CC1CN (stereo not shown) [free form, 7-(4-aminomethyl-3-methyloxyiminopyrrolidin-1-yl)-1-cyclopropyl-6-fluoro-4-oxo-1,4-dihydro-1,8-naphthyridine-3-carboxylic acid]",antibacterial activity,test strains,excellent antibacterial activity
same,Water Solubility,[22]; pH 2,14.6
same,Water Solubility,[22]; pH 7,0.007
